Measured values taken from JP2022155436A, “メトホルミン塩の調製方法” (Guangzhou University, priority 2021, dated 2021).

Assay: Hygroscopicity (moisture uptake) test of metformin salts
Format: physicochemical
Settings: 25°C, 10 days; for moisture-absorption weight increase: 75% RH (saturated NaCl) and 93% RH (saturated KNO3), sampled on day 5 and day 10; for hygroscopicity compared with metformin: 75% RH and 93% RH

| SMILES | moisture-absorption weight increase [%] | hygroscopicity compared with metformin |
| --- | --- | --- |
| CN(C)C(=N)N=C(N)N.Oc1cccc2c(O)cccc12 [メトホルミンと1,5-ジヒドロキシナフタレン, メトホルミンと1,5-ジヒドロキシナフタレン塩] | < 5 | 吸湿性が顕著に低下した |
| CN(C)C(=N)NC(=N)N.O=C(O)c1ccc2ccccc2c1 [メトホルミンと2-ナフトエ酸塩] | < 5 | 吸湿性が顕著に低下した |
| CN(C)C(=N)NC(=N)N.O=C(O)Cc1cccc2ccccc12 [メトホルミンと1-ナフタレン酢酸塩] | < 5 | 吸湿性が顕著に低下した |
| CN(C)C(=N)NC(=N)N.O=C(O)c1cc2ccccc2cc1O [メトホルミンと2-ヒドロキシ-3-ナフトエ酸塩form2] | < 5 | 吸湿性が顕著に低下した |
| CN(C)C(=N)N=C(N)N.O=C(O)c1cc2ccccc2cc1O [メトホルミンと2-ヒドロキシ-3-ナフトエ酸塩form1] | < 5 | 吸湿性が顕著に低下した |
| CN(C)C(=N)N=C(N)N.O=C(O)c1ccc2ccccc2c1O [メトホルミンと1-ヒドロキシ-2-ナフトエ酸塩] |  | 吸湿性が顕著に低下した |
